Test results as given in PubChem BioAssay (NCI).
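Grown in 96-well plates, cells were treated for 48 hours with each compound at five concentrations. Insufficient inhibition: endpoint recorded as highest concentration tested. TGI is the concentration that stops growth completely.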

Assays:
Assay in all cases: DTP human tumour cell line panel, 48 h
EKVX NSCLC = tested on: EKVX NSCLC
SR leukemia = tested on: SR leukemia
COLO 205 colon = tested on: COLO 205 colon
MOLT-4 leukemia = tested on: MOLT-4 leukemia
SK-OV-3 ovarian = tested on: SK-OV-3 ovarian
HOP-92 NSCLC = tested on: HOP-92 NSCLC
RXF 393 renal = tested on: RXF 393 renal
OVCAR-5 ovarian = tested on: OVCAR-5 ovarian
BT-549 breast = tested on: BT-549 breast
SK-MEL-5 melanoma = tested on: SK-MEL-5 melanoma
LOX IMVI melanoma = tested on: LOX IMVI melanoma
OVCAR-8 ovarian = tested on: OVCAR-8 ovarian
NCI-H522 lung = tested on: NCI-H522 lung
PC-3 prostate = tested on: PC-3 prostate
UACC-257 melanoma = tested on: UACC-257 melanoma
SF-268 CNS = tested on: SF-268 CNS
SF-539 CNS = tested on: SF-539 CNS
SNB-19 CNS = tested on: SNB-19 CNS
HL-60(TB) leukemia = tested on: HL-60(TB) leukemia
UACC-62 melanoma = tested on: UACC-62 melanoma
SN12C renal = tested on: SN12C renal
NCI-H460 lung = tested on: NCI-H460 lung
A498 renal = tested on: A498 renal
OVCAR-3 ovarian = tested on: OVCAR-3 ovarian
SF-295 CNS = tested on: SF-295 CNS
MALME-3M melanoma = tested on: MALME-3M melanoma
RPMI-8226 leukemia = tested on: RPMI-8226 leukemia
K-562 leukemia = tested on: K-562 leukemia
HCC-2998 colon = tested on: HCC-2998 colon
NCI-H23 lung = tested on: NCI-H23 lung
MDA-MB-231 breast = tested on: MDA-MB-231 breast
CAKI-1 renal = tested on: CAKI-1 renal
U251 CNS = tested on: U251 CNS
TK-10 renal = tested on: TK-10 renal
NCI-H226 lung = tested on: NCI-H226 lung
HCT-15 colon = tested on: HCT-15 colon
MCF7 breast = tested on: MCF7 breast
MDA-MB-435 = tested on: MDA-MB-435
NCI/ADR-RES ovarian = tested on: NCI/ADR-RES ovarian
DU-145 prostate = tested on: DU-145 prostate
UO-31 renal = tested on: UO-31 renal
IGROV1 ovarian = tested on: IGROV1 ovarian
MDA-N = tested on: MDA-N
HOP-62 NSCLC = tested on: HOP-62 NSCLC
HS 578T breast = tested on: HS 578T breast
SK-MEL-2 melanoma = tested on: SK-MEL-2 melanoma
OVCAR-4 ovarian = tested on: OVCAR-4 ovarian
T-47D breast = tested on: T-47D breast
A549 NSCLC = tested on: A549 NSCLC
ACHN renal = tested on: ACHN renal
M14 melanoma = tested on: M14 melanoma
CCRF-CEM leukemia = tested on: CCRF-CEM leukemia
HCT-116 colon = tested on: HCT-116 colon
SW-620 colon = tested on: SW-620 colon
786-0 renal = tested on: 786-0 renal
KM12 colon = tested on: KM12 colon
SNB-75 CNS = tested on: SNB-75 CNS
HT29 colon = tested on: HT29 colon

Measured: TGI

O=C(O)CN1CCNCCN(CC(=O)O)CCNCC1
> 50.5 µM: NCI-H460 lung
> 100 µM: EKVX NSCLC | MOLT-4 leukemia | SK-OV-3 ovarian | HOP-92 NSCLC | RXF 393 renal | OVCAR-5 ovarian | BT-549 breast | LOX IMVI melanoma | OVCAR-8 ovarian | NCI-H522 lung | PC-3 prostate | UACC-257 melanoma | SF-268 CNS | SF-539 CNS | SNB-19 CNS | UACC-62 melanoma | SN12C renal | A498 renal | OVCAR-3 ovarian | SF-295 CNS | MALME-3M melanoma | RPMI-8226 leukemia | K-562 leukemia | HCC-2998 colon | NCI-H23 lung | MDA-MB-231 breast | CAKI-1 renal | U251 CNS | TK-10 renal | NCI-H226 lung | MCF7 breast | MDA-MB-435 | NCI/ADR-RES ovarian | DU-145 prostate | UO-31 renal | IGROV1 ovarian | HOP-62 NSCLC | HS 578T breast | SK-MEL-2 melanoma | OVCAR-4 ovarian | T-47D breast | A549 NSCLC | ACHN renal | M14 melanoma | CCRF-CEM leukemia | HCT-116 colon | SW-620 colon | 786-0 renal | KM12 colon | HT29 colon
21.9 µM: SK-MEL-5 melanoma
15.2 µM: HL-60(TB) leukemia
98.9 µM: SNB-75 CNS
> 31.6 µM: MDA-N
> 96.5 µM: SR leukemia
> 74.7 µM: HCT-15 colon
> 36.4 µM: COLO 205 colon
